1 compound from ChEMBL document CHEMBL5653627 (J Neurochem, 2017) can be followed below.

What all share (type): functional
Assay [1] relates to SMA-560. The assay is described as follows: Induction of apoptosis in mouse SMA-560 cells assessed as early apoptotic cells incubated for 72 hrs by Annexin V-FITC/PI staining based flow cytometric analysis (reference value: 0.0056%). (Flow cytometry measures light scatter and fluorescence of single cells or particles in a stream.)
Assay [2] has as its system SMA-560. The assay is described as follows: Induction of apoptosis in mouse SMA-560 cells assessed as live cells incubated for 72 hrs by Annexin V-FITC/PI staining based flow cytometric analysis (reference value: 84.6%).
In assay [3] the test system is SMA-560. Put plainly: Induction of apoptosis in mouse SMA-560 cells assessed as late apoptotic cells incubated for 72 hrs by Annexin V-FITC/PI staining based flow cytometric analysis (reference value: 1.83%).

In the case of `CN[C@@H]1C[C@H]2O[C@@](C)([C@@H]1OC)n1c3ccccc3c3c4c(c5c6ccccc6n2c5c31)C(=O)NC4` [STAUROSPORINE], the Activity in assay [1] came to 0%; in assay [2] it was 1.29%; in assay [3] it was 87.7%.
